Assay results published in ChEMBL document CHEMBL1201862, “PubChem BioAssay data set” (2004).
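Interpolation was linear, between the two tested concentrations surrounding the appropriate level; five concentrations were tested over 48 hours in 96-well plates. Here, GI50 denotes the concentration required for 50% inhibition of growth.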 Active and inactive are the calls of the source. Rule as the data show it: active = GI50 up to about 1.1 µM and inactive = higher.

What was measured:
Test in all cases: DTP human tumour cell line panel, 48 h
786-0 = tested on: 786-0
A498 = tested on: A498
A549 = tested on: A549
ACHN = tested on: ACHN
CAKI-1 = tested on: CAKI-1
CCRF-CEM = tested on: CCRF-CEM
COLO 205 = tested on: COLO 205
DLD-1 = tested on: DLD-1
DMS-273 = tested on: DMS-273
EKVX = tested on: EKVX
HCC 2998 = tested on: HCC 2998
HCT-116 = tested on: HCT-116
HCT-15 = tested on: HCT-15
HL-60 = tested on: HL-60
HOP-18 = tested on: HOP-18
HOP-62 = tested on: HOP-62
HT-29 = tested on: HT-29
IGROV-1 = tested on: IGROV-1
K562 = tested on: K562
KM-20L2 = tested on: KM-20L2
KM12 = tested on: KM12
LOX IMVI = tested on: LOX IMVI
LXFL 529 = tested on: LXFL 529
M14 = tested on: M14
M19-MEL = tested on: M19-MEL
MOLT-4 = tested on: MOLT-4
Malme-3M = tested on: Malme-3M
NCI-H226 = tested on: NCI-H226
NCI-H23 = tested on: NCI-H23
NCI-H460 = tested on: NCI-H460
NCI-H522 = tested on: NCI-H522
OVCAR-3 = tested on: OVCAR-3
OVCAR-4 = tested on: OVCAR-4
OVCAR-5 = tested on: OVCAR-5
OVCAR-8 = tested on: OVCAR-8
RPMI-8226 = tested on: RPMI-8226
RXF 393 = tested on: RXF 393
SF-268 = tested on: SF-268
SF-295 = tested on: SF-295
SF-539 = tested on: SF-539
SK-MEL-28 = tested on: SK-MEL-28
SK-MEL-2 = tested on: SK-MEL-2
SK-MEL-5 = tested on: SK-MEL-5
SK-OV-3 = tested on: SK-OV-3
SN12C = tested on: SN12C
SNB-19 = tested on: SNB-19
SNB-75 = tested on: SNB-75
SNB-78 = tested on: SNB-78
SW-620 = tested on: SW-620
TK-10 = tested on: TK-10
U-251 = tested on: U-251
UACC-257 = tested on: UACC-257
UO-31 = tested on: UO-31

Q: What does the source list for `O=C(CSc1nnc(Cc2ccccc2)o1)Nc1cccc(Cl)c1`?
A: GI50 (786-0): 96.8 µM (inactive); GI50 (A498): > 100 µM (inactive); GI50 (A549): > 100 µM (inactive); GI50 (ACHN): 46.9 µM (inactive); GI50 (CAKI-1): 92.5 µM (inactive); GI50 (CCRF-CEM): 71 µM (inactive); GI50 (COLO 205): > 100 µM (inactive); GI50 (DLD-1): > 100 µM (inactive); GI50 (DMS-273): 83 µM (inactive); GI50 (EKVX): > 100 µM (inactive); GI50 (HCC 2998): 96.6 µM (inactive); GI50 (HCT-116): > 100 µM (inactive); GI50 (HCT-15): 98.4 µM; GI50 (HL-60): > 100 µM (inactive); GI50 (HOP-18): 87.1 µM (inactive); GI50 (HOP-62): > 100 µM (inactive); GI50 (HT-29): 66.2 µM (inactive); GI50 (IGROV-1): > 100 µM (inactive); GI50 (K562): 46.6 µM (inactive); GI50 (KM-20L2): > 100 µM (inactive); GI50 (KM12): > 100 µM (inactive); GI50 (LOX IMVI): 64.4 µM (inactive); GI50 (LXFL 529): 44.1 µM (inactive); GI50 (M14): 69 µM (inactive); GI50 (M19-MEL): > 100 µM (inactive); GI50 (MOLT-4): 79.3 µM (inactive); GI50 (Malme-3M): 63.7 µM (inactive); GI50 (NCI-H226): > 100 µM (inactive); GI50 (NCI-H23): 66.2 µM (inactive); GI50 (NCI-H460): > 100 µM (inactive); GI50 (NCI-H522): 40.9 µM (inactive); GI50 (OVCAR-3): 31.9 µM (inactive); GI50 (OVCAR-4): 51.2 µM (inactive); GI50 (OVCAR-5): > 100 µM (inactive); GI50 (OVCAR-8): > 100 µM (inactive); GI50 (RPMI-8226): 72.4 µM (inactive); GI50 (RXF 393): > 100 µM (inactive); GI50 (SF-268): > 100 µM (inactive); GI50 (SF-295): 68.7 µM (inactive); GI50 (SF-539): > 100 µM (inactive); GI50 (SK-MEL-28): > 100 µM (inactive); GI50 (SK-MEL-2): 70.8 µM (inactive); GI50 (SK-MEL-5): 76.7 µM (inactive); GI50 (SK-OV-3): > 100 µM (inactive); GI50 (SN12C): 97.1 µM (inactive); GI50 (SNB-19): > 100 µM (inactive); GI50 (SNB-75): 25.9 µM (inactive); GI50 (SNB-78): > 100 µM (inactive); GI50 (SW-620): > 100 µM (inactive); GI50 (TK-10): > 100 µM (inactive); GI50 (U-251): > 100 µM (inactive); GI50 (UACC-257): > 100 µM (inactive); GI50 (UO-31): > 100 µM (inactive)
